Consider one compound from publication PMC11680393 (Viruses, 2024).

The subject of one data set is RSV A2. The data set is described as follows: CPE assay, RSV A2 in HEp-2 cells (resazurin). It counts as cell-based. To be noted: human respiratory syncytial virus, 120 h, RSV A2 0.2 MOI, 5 days.
A further data set relates to HEp-2 cells. The data set is described as follows: in vitro. It counts as cell-based, Human.
The nature of a further data set: in vitro. It counts as cell-based, Human. To be noted: human; HEp-2 cells, 5 or 6 days; read-out: Cytotoxicity CC50.

Structures are written as SMILES.

The term IC50 denotes the concentration at which inhibition is half-maximal. Low values mean higher potency, high ones lower potency. The CC50 is the concentration at which the toxic effect on the cells reaches its halfway point. Compound `Cc1cnc(N2CC3(CCOCC3)C2)c(C(=O)Nc2ccc(C(=O)N3CCc4cc(C(=O)Nc5c(C)cccc5F)sc4-c4ccccc43)cc2)c1` [PC786] had an IC50 in the data set on RSV A2 of 0.5 nM. Further, the “concentration up to which cell viability was not affected” value in the data set with HEp-2 cells is listed as not below 14 µM. Also, the CC50 in the data set “in vitro” was more than 14000 nM.
